Results taken from patent US20120270237A9, “METHODS FOR THE IDENTIFICATION OF KINASE INTERACTING MOLECULES AND FOR THE PURIFICATION OF KINASE PROTEINS” (Cellzone AG, priority 2009, published 2012).

What was measured:
Test in all cases: Kinobeads competition binding, L-363 cell lysate
Parameters in all cases: endogenous in cells
Conditions in all cases: 10 μM free compound, L-363 lysate
MSK2 = MSK2 (Homo sapiens, UniProt O75676)
Outline: (§1)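 MG132-pretreated (20 μM, 3 h) L-363 lysate; 10 μM cpd vs DMSO; immobilized-cpd bead capture; SDS-PAGE, tryptic digest, iTRAQ 114/117; LC-MS/MS reporter quant.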

FER = FER (Homo sapiens, UniProt P16591)
Outline: as §1

CDK5 = CDK5 (Homo sapiens, UniProt Q00535)
Outline: as §1

MAP2K5 = molecular target: T1, MAP2K5 (Homo sapiens, UniProt Q13163)
T1 sequence (Q13163 1-448): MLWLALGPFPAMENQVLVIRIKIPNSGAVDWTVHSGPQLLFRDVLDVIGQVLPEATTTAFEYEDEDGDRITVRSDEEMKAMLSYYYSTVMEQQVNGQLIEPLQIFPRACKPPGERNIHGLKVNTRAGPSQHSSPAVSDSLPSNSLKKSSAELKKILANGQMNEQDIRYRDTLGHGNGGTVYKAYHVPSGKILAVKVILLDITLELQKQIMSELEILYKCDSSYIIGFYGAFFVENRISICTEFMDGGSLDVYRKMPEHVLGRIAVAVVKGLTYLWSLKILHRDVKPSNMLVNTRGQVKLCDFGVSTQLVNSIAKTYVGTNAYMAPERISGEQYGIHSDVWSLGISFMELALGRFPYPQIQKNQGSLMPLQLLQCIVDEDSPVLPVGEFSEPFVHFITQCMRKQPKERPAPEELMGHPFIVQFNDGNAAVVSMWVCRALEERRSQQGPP
Outline: as §1

AurA = molecular target: T2, AurA (Homo sapiens, UniProt O14965)
T2 sequence (O14965 1-403): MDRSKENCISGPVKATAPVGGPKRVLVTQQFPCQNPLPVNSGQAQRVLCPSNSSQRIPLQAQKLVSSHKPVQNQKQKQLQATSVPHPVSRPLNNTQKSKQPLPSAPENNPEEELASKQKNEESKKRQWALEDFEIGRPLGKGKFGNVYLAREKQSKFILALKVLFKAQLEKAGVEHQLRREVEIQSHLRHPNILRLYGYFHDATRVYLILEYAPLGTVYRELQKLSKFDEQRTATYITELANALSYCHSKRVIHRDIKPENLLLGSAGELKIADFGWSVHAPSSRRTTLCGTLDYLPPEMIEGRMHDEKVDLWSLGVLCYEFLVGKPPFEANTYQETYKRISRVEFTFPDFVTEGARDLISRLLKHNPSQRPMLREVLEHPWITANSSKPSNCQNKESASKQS
Outline: as §1

PYK2 = PYK2 (Homo sapiens, UniProt Q14289)
Outline: as §1

TEC = molecular target: T3, TEC (Homo sapiens, UniProt P42680)
T3 sequence (P42680 1-631): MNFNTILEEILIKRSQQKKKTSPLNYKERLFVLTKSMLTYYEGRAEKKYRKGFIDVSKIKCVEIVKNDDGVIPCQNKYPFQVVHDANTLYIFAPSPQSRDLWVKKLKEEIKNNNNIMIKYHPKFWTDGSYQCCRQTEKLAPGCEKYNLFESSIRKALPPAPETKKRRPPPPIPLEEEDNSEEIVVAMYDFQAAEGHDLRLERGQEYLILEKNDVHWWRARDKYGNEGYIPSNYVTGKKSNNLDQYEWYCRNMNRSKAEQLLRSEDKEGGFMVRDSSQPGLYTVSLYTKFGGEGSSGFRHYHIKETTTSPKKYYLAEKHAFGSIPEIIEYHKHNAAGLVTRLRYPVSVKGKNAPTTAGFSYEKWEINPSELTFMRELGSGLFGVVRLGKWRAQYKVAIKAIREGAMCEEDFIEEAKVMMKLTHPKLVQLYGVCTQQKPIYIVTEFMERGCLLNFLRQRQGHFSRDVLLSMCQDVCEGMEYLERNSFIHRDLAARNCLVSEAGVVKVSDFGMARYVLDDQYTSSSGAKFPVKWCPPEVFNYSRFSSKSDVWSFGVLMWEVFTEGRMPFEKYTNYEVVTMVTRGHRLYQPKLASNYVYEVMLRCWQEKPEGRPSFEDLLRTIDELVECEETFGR
Outline: as §1

TYK2 = TYK2 (Homo sapiens, UniProt P29597)
Outline: as §1

PLK1 = PLK1 (Homo sapiens, UniProt P53350)
Outline: as §1

RSK2 = RSK2 (Homo sapiens, UniProt P51812)
Outline: as §1

PYK2, sequence (Q14289 whole entry): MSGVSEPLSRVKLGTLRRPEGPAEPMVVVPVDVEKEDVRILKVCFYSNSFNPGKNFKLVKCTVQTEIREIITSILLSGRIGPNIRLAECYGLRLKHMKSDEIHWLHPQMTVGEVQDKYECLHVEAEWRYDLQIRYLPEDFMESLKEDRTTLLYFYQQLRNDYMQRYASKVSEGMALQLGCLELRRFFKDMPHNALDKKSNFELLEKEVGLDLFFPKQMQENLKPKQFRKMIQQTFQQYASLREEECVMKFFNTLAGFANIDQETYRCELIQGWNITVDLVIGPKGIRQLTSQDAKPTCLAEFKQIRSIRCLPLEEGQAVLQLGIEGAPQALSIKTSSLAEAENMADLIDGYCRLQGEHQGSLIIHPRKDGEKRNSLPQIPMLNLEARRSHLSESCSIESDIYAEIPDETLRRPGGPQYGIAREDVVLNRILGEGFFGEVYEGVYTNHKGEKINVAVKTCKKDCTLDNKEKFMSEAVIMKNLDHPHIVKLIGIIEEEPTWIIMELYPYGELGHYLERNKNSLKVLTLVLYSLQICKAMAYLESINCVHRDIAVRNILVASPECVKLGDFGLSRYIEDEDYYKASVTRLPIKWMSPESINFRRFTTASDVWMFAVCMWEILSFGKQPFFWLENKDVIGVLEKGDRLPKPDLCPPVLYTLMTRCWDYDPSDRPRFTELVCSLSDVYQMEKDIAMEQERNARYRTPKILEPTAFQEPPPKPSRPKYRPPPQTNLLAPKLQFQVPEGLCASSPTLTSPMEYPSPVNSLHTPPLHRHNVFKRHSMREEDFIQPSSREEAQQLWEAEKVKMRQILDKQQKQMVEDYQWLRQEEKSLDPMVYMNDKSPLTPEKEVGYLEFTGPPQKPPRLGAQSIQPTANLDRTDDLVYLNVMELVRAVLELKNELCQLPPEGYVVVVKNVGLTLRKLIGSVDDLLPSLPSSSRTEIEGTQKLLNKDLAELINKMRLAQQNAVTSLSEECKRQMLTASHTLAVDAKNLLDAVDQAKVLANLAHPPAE
PLK1, sequence (P53350 whole entry): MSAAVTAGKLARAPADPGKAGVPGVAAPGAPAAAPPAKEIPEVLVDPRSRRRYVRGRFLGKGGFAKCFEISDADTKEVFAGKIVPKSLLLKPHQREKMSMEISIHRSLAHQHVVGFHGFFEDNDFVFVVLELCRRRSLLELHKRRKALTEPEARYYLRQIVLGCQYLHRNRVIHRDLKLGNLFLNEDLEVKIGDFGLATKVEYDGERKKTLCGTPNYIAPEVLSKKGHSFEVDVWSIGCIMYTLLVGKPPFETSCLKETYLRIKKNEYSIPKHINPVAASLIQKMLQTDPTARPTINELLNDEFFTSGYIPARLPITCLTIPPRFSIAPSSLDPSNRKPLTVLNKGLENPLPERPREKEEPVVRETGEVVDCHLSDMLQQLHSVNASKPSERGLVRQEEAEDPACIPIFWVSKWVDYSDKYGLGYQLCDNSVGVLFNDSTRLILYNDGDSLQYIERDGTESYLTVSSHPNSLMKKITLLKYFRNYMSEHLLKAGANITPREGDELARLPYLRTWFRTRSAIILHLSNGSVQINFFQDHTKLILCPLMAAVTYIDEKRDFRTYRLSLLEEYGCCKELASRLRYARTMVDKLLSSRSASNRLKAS
CDK5, sequence (Q00535 whole entry): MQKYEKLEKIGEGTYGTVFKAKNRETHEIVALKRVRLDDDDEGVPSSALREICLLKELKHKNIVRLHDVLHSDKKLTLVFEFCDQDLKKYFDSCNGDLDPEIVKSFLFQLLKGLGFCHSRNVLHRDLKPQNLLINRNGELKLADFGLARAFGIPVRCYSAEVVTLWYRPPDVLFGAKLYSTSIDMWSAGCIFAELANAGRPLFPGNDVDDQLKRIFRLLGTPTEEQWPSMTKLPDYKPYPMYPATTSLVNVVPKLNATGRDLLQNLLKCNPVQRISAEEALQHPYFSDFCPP
MSK2, sequence (O75676 whole entry): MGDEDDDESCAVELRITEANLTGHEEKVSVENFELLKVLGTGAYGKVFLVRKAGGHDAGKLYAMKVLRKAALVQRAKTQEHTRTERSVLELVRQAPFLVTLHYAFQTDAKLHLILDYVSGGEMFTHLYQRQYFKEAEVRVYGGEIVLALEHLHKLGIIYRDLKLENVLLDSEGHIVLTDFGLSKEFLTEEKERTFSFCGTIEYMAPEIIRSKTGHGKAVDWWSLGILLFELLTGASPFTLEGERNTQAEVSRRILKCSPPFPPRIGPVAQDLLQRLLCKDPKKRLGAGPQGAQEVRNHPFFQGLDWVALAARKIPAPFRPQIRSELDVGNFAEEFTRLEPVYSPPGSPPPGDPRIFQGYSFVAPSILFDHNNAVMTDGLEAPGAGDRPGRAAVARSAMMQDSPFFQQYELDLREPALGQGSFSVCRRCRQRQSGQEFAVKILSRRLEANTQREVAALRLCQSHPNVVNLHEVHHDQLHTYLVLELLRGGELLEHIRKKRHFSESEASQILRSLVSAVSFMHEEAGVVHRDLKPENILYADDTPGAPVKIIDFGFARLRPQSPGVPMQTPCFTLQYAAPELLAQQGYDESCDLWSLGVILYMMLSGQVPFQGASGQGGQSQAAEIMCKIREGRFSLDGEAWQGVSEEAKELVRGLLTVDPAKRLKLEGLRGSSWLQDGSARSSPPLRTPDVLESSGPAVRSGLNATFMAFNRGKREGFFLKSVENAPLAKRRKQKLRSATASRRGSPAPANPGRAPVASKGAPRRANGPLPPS
RSK2, sequence (P51812 whole entry): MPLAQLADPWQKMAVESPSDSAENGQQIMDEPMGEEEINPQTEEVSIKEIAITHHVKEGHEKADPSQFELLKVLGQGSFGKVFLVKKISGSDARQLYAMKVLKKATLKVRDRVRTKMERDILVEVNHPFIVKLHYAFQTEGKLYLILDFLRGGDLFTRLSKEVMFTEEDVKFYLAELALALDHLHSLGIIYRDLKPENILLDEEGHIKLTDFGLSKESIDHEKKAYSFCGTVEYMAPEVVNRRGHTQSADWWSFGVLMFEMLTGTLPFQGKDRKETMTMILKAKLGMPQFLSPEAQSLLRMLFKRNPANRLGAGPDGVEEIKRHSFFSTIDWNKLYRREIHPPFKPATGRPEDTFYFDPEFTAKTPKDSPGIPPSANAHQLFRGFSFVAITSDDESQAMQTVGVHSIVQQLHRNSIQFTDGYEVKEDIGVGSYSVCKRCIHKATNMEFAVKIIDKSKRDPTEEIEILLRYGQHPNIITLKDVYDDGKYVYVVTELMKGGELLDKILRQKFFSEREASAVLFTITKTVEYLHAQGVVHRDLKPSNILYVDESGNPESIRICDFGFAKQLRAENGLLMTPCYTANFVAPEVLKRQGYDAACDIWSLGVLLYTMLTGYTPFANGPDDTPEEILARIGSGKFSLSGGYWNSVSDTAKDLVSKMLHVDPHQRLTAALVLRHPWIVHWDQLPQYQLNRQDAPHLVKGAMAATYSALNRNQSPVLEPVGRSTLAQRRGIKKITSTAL
FER, sequence (P16591 whole entry): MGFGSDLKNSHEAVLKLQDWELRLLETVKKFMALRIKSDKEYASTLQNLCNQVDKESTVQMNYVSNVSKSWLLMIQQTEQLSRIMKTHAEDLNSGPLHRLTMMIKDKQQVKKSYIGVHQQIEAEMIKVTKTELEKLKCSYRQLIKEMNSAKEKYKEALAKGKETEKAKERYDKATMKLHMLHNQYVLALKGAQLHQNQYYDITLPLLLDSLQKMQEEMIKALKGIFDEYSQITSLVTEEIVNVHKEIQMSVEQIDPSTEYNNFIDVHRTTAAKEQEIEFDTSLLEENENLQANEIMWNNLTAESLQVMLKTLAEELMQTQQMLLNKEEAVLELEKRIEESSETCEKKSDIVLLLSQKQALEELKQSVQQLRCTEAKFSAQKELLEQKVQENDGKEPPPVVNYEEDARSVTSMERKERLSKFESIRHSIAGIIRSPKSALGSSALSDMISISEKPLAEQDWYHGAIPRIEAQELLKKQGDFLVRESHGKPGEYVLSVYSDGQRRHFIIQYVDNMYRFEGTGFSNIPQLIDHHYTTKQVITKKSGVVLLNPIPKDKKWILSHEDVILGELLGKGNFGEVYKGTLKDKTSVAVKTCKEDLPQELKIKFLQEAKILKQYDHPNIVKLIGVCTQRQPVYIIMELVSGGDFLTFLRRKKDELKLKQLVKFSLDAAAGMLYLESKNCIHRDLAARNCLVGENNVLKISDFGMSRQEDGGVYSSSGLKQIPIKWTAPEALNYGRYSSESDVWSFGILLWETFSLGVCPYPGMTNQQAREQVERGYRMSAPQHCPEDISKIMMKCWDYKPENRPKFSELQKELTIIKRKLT

## CS(=O)(=O)Nc1ccccc1Nc1nc(Nc2cccc(OCCN)c2)ncc1Cl [CZC31326, N-(2-(2-(3-(2-aminoethoxy)phenylamino)-5-chloropyrimidin-4-ylamino)phenyl)methanesulfonamide]
MSK2
  inhibition at 10 µM: 94.2%
FER
  inhibition at 10 µM: 97.8%
CDK5
  inhibition at 10 µM: 96.4%
MAP2K5
  inhibition at 10 µM: 97.5%
AurA
  inhibition at 10 µM: 97%
PYK2
  inhibition at 10 µM: 96.1%
TEC
  inhibition at 10 µM: 92.8%
TYK2
  Competition %: 96.9%
PLK1
  inhibition at 10 µM: 96.8%
RSK2
  inhibition at 10 µM: 97.7%
